38 compounds from patent US20240299385A1 (ReWind Therapeutics NV, priority 2021, published 2024) can be followed below.

The target of the assay is T1, human GPR17 receptor (Homo sapiens, UniProt Q13304).
T1 construct: host or cells: HEK-293
Nature of the assay: Calcium mobilization functional assay (Fluo-8, FLIPR TETRA) in HEK-293 hGPR17 (Gα-q assay). The conditions noted are these: antagonism of MDL29,951 (~EC80) induced Ca2+ signal; cell line (HEK-293 hGPR17 or HEK-293 Suchi5 hGPR17) not given. In kind it is cell-based. An outline of the steps: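 Fluo-8-loaded HEK-293 hGPR17 cells (60 min dye loading, room temperature) were preincubated with compound for twenty minutes, then challenged with agonist MDL29,951 at ~EC80, 500 nM. Intracellular calcium release via Gα-q was recorded as FLIPR fluorescence for a further 2 minutes; compounds tested in duplicate.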

T1 sequence (Q13304 whole entry): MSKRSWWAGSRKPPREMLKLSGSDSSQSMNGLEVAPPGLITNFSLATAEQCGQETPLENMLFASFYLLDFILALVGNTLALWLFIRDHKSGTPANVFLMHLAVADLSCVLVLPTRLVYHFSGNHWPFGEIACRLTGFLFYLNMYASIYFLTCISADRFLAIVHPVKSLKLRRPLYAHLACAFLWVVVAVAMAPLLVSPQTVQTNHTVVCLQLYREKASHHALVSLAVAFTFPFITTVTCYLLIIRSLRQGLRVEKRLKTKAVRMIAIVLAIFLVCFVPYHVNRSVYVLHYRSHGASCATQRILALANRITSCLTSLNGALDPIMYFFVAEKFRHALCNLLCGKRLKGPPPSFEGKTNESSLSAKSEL

For `O=S(=O)(Nc1cc(F)cs1)c1c[nH]c(-c2ccccc2)c1` [Cpd 593, N-(4-fluorothiophene-2-yl)-5-phenyl-1H-pyrrole-3-sulfonamide], the IC50 lay in the range of 0.5 to 5 µM.

For `N#Cc1ccc(NS(=O)(=O)c2c[nH]c(-c3cscc3F)c2)c(F)c1` [Cpd 594, N-(4-cyano-2-fluorophenyl)-5-(4-fluorothiophene-3-yl)-1H-pyrrole-3-sulfonamide], the half-maximal inhibitory concentration (IC50) is under 0.5 µM. Regarding `Cc1nc(-c2cc(S(=O)(=O)Nc3cc(F)c(C(F)(F)F)cc3F)c[nH]2)cs1` [Cpd 595, N-[2,5-difluoro-4-(trifluoromethyl)phenyl]-5-(2-methyl-1,3-thiazol-4-yl)-1H-pyrrole-3-sulfonamide], the IC50 fell in the range of 0.5 to 5 µM. Next, `N#Cc1cc(F)c(NS(=O)(=O)c2c[nH]c(-c3ccc(F)c(Cl)c3)c2)cc1F` [Cpd 596, 5-(3-chloro-4-fluorophenyl)-N-(4-cyano-2,5-difluorophenyl)-1H-pyrrole-3-sulfonamide]: 0.5 to 5 µM; `O=S(=O)(Nc1cc(F)c(C(F)(F)F)cc1F)c1c[nH]c(-c2cncs2)c1` [Cpd 597, N-[2,5-difluoro-4-(trifluoromethyl)phenyl]-5-(1,3-thiazol-5-yl)-1H-pyrrole-3-sulfonamide]: under 0.5 µM. As to `N#Cc1cc(F)c(NS(=O)(=O)c2c[nH]c(-c3nccs3)c2)cc1F` [Cpd 598, N-(4-cyano-2,5-difluorophenyl)-5-(1,3-thiazol-2-yl)-1H-pyrrole-3-sulfonamide], the IC50 is under 0.5 µM.

Consider `Cc1csc(-c2cc(S(=O)(=O)Nc3cc(F)c(C(F)(F)F)cc3F)c[nH]2)n1` [Cpd 599, N-[2,5-difluoro-4-(trifluoromethyl)phenyl]-5-(4-methyl-1,3-thiazol-2-yl)-1H-pyrrole-3-sulfonamide], for which the IC50 was under 0.5 µM.

For the compound `Cn1cccc(-c2cc(S(=O)(=O)Nc3ccc(C#N)cc3F)c[nH]2)c1=O` [Cpd 600, N-(4-cyano-2-fluorophenyl)-5-(1-methyl-2-oxopyridin-3-yl)-1H-pyrrole-3-sulfonamide], the concentration for half-maximal inhibition (IC50) is 5 to 50 µM. As to `N#Cc1cc(F)c(NS(=O)(=O)c2c[nH]c(-c3ccccc3)c2)s1` [Cpd 601, N-(5-cyano-3-fluorothiophen-2-yl)-5-phenyl-1H-pyrrole-3-sulfonamide], the IC50 lay in the range of 0.5 to 5 µM. Consider `N#Cc1ccc(NS(=O)(=O)c2c[nH]c(-c3sccc3F)c2)c(F)c1` [Cpd 602, N-(4-cyano-2-fluorophenyl)-5-(3-fluorothiophen-2-yl)-1H-pyrrole-3-sulfonamide], for which the half-maximal inhibitory concentration (IC50) was under 0.5 µM. As to `CC(C)n1cccc(-c2cc(S(=O)(=O)Nc3ccc(C#N)cc3F)c[nH]2)c1=O` [Cpd 603, N-(4-cyano-2-fluorophenyl)-5-(2-oxo-1-propan-2-ylpyridin-3-yl)-1H-pyrrole-3-sulfonamide], the IC50 lay within 5 to 50 µM. As to `N#Cc1ccc(NS(=O)(=O)c2c[nH]c(-c3cccn(C(F)F)c3=O)c2)c(F)c1` [Cpd 604, N-(4-cyano-2-fluorophenyl)-5-[1-(difluoromethyl)-2-oxopyridin-3-yl]-1H-pyrrole-3-sulfonamide], the IC50 lay within 0.5 to 5 µM. Next, `N#Cc1cc(F)c(NS(=O)(=O)c2c[nH]cc2Cc2cc(F)cc(Cl)c2)cc1F` [Cpd 605, 4-[(3-chloro-5-fluorophenyl)methyl]-N-(4-cyano-2,5-difluorophenyl)-1H-pyrrole-3-sulfonamide]: 0.5 to 5 µM. Then `Cc1cnc(-c2cc(S(=O)(=O)Nc3cc(F)c(C(F)(F)F)cc3F)c[nH]2)s1` [Cpd 606, N-[2,5-difluoro-4-(trifluoromethyl)phenyl]-5-(5-methyl-1,3-thiazol-2-yl)-1H-pyrrole-3-sulfonamide], with 0.5 to 5 µM. Take `N#Cc1cnc(-c2cc(S(=O)(=O)Nc3cc(F)c(C(F)(F)F)cc3F)c[nH]2)s1` [Cpd 607, 5-(5-cyano-1,3-thiazol-2-yl)-N-[2,5-difluoro-4-(trifluoromethyl)phenyl]-1H-pyrrole-3-sulfonamide]: the IC50 lay within 5 to 50 µM.

`N#Cc1ccc(NS(=O)(=O)c2c[nH]cc2Cc2ccc3c(c2)OCC3)c(F)c1` [Cpd 608, N-(4-cyano-2-fluorophenyl)-4-(2,3-dihydro-1-benzofuran-6-ylmethyl)-1H-pyrrole-3-sulfonamide]: the IC50 fell in the range of 5 to 50 µM. Turning to `N#Cc1ccc(NS(=O)(=O)c2c[nH]c(F)c2Cc2ccccc2)c(F)c1` [Cpd 609, 4-benzyl-N-(4-cyano-2-fluorophenyl)-5-fluoro-1H-pyrrole-3-sulfonamide], the IC50 was in the range of 0.5 to 5 µM.

`N#Cc1ccc(NS(=O)(=O)c2c[nH]c(-c3nccs3)c2)c(F)c1` [Cpd 610, N-(4-cyano-2-fluorophenyl)-5-(1,3-thiazol-2-yl)-1H-pyrrole-3-sulfonamide]: the IC50 is under 0.5 µM.

Consider `O=S(=O)(Nc1cc(F)c(OC(F)F)cc1F)c1c[nH]c(-c2nnco2)c1` [Cpd 611, N-[4-(difluoromethoxy)-2,5-difluorophenyl]-5-(1,3,4-oxadiazol-2-yl)-1H-pyrrole-3-sulfonamide], for which the concentration for half-maximal inhibition (IC50) fell in the range of 0.5 to 5 µM. `[2H]c1ccc(-c2cc(S(=O)(=O)Nc3ccc(C#N)cc3F)c[nH]2)cc1` [Cpd 612, N-(4-cyano-2-fluorophenyl)-5-(4-deuteriophenyl)-1H-pyrrole-3-sulfonamide]: the IC50 was under 0.5 µM. Then `O=S(=O)(Nc1cc(F)c(OC(F)F)cc1F)c1c[nH]c(-c2ncns2)c1` [Cpd 613, N-[4-(difluoromethoxy)-2,5-difluorophenyl]-5-(1,2,4-thiadiazol-5-yl)-1H-pyrrole-3-sulfonamide], with 0.5 to 5 µM; and `N#Cc1ccc(NS(=O)(=O)c2c[nH]c(-c3cccn(CC(F)(F)F)c3=O)c2)c(F)c1` [Cpd 614, N-(4-cyano-2-fluorophenyl)-5-[2-oxo-1-(2,2,2-trifluoroethyl)pyridin-3-yl]-1H-pyrrole-3-sulfonamide], with 5 to 50 µM; and `N#Cc1cc(F)c(NS(=O)(=O)c2c[nH]c(-c3cccc4ccoc34)c2)cc1F` [Cpd 615, 5-(1-benzofuran-7-yl)-N-(4-cyano-2,5-difluorophenyl)-1H-pyrrole-3-sulfonamide], with under 0.5 µM. Then `N#Cc1ccc(NS(=O)(=O)c2c[nH]cc2CC2CCCCC2)c(F)c1` [Cpd 616, N-(4-cyano-2-fluorophenyl)-4-(cyclohexylmethyl)-1H-pyrrole-3-sulfonamide], with 0.5 to 5 µM; and `N#Cc1cnc(-c2cc(S(=O)(=O)Nc3cc(F)c(OC(F)F)cc3F)c[nH]2)s1` [Cpd 617, 5-(5-cyano-1,3-thiazol-2-yl)-N-[4-(difluoromethoxy)-2,5-difluorophenyl]-1H-pyrrole-3-sulfonamide], with 5 to 50 µM; and `O=S(=O)(Nc1cc(F)c(C(F)(F)F)cc1F)c1c[nH]c(-c2cnccn2)c1` [Cpd 618, N-[2,5-difluoro-4-(trifluoromethyl)phenyl]-5-pyrazin-2-yl-1H-pyrrole-3-sulfonamide], with 0.5 to 5 µM. Next, `O=S(=O)(Nc1cc(F)c(C(F)(F)F)cc1F)c1c[nH]c(-c2cccnn2)c1` [Cpd 619, N-[2,5-difluoro-4-(trifluoromethyl)phenyl]-5-pyridazin-3-yl-1H-pyrrole-3-sulfonamide]: under 0.5 µM; `Cn1cnc2c(-c3cc(S(=O)(=O)Nc4ccc(C#N)cc4F)c[nH]3)cccc21` [Cpd 620, N-(4-cyano-2-fluorophenyl)-5-(1-methylbenzimidazol-4-yl)-1H-pyrrole-3-sulfonamide]: 0.5 to 5 µM; `O=S(=O)(Nc1cc(F)c(C(F)(F)F)cc1F)c1c[nH]c(C2CCC(F)(F)C2)c1` (centres unmarked) [Cpd 621, 5-(3,3-difluorocyclopentyl)-N-[2,5-difluoro-4-(trifluoromethyl)phenyl]-1H-pyrrole-3-sulfonamide]: 0.5 to 5 µM.

Turning to `N#Cc1ccc(NS(=O)(=O)c2c[nH]c(CC3CC3)c2)c(F)c1` [Cpd 622, N-(4-cyano-2-fluorophenyl)-5-(cyclopropylmethyl)-1H-pyrrole-3-sulfonamide], the half-inhibitory concentration (IC50) is 0.5 to 5 µM. Then `N#Cc1ccc(NS(=O)(=O)c2c[nH]cc2Cc2ccncc2)c(F)c1` [Cpd 624, N-(4-cyano-2-fluorophenyl)-4-(pyridin-4-ylmethyl)-1H-pyrrole-3-sulfonamide], with 0.5 to 5 µM; and `N#Cc1ccc(NS(=O)(=O)c2c[nH]cc2CCc2ccccc2)c(F)c1` [Cpd 625, N-(4-cyano-2-fluorophenyl)-4-(2-phenylethyl)-1H-pyrrole-3-sulfonamide], with 5 to 50 µM. Then `O=S(=O)(Nc1cc(F)c(C(F)(F)F)cc1F)c1c[nH]c(-c2ccccc2)c1F` [Cpd 626, N-[2,5-difluoro-4-(trifluoromethyl)phenyl]-4-fluoro-5-phenyl-1H-pyrrole-3-sulfonamide], with under 0.5 µM. Next, `O=S(=O)(Nc1cc(F)c(C(F)(F)F)cc1F)c1cc(-c2ccccc2)[nH]c1F` [Cpd 627, N-[2,5-difluoro-4-(trifluoromethyl)phenyl]-2-fluoro-5-phenyl-1H-pyrrole-3-sulfonamide]: 0.5 to 5 µM; `O=S(=O)(Nc1cc(F)c(OC(F)F)cc1F)c1c[nH]c(-c2cncs2)c1` [Cpd 628, N-[4-(difluoromethoxy)-2,5-difluorophenyl]-5-(1,3-thiazol-5-yl)-1H-pyrrole-3-sulfonamide]: under 0.5 µM; `O=S(=O)(Nc1cc(F)c(OC(F)F)cc1F)c1c[nH]c(-c2cscn2)c1` [Cpd 629, N-[4-(difluoromethoxy)-2,5-difluorophenyl]-5-(1,3-thiazol-4-yl)-1H-pyrrole-3-sulfonamide]: under 0.5 µM. As to `O=S(=O)(Nc1ncc(C(F)(F)F)s1)c1c[nH]c(-c2ccccc2)c1` [Cpd 630, 5-phenyl-N-[5-(trifluoromethyl)-1,3-thiazol-2-yl]-1H-pyrrole-3-sulfonamide], the IC50 lay within 0.5 to 5 µM.

Consider `N#Cc1cnc(NS(=O)(=O)c2c[nH]c(-c3ccccc3)c2)s1` [Cpd 631, N-(5-cyano-1,3-thiazol-2-yl)-5-phenyl-1H-pyrrole-3-sulfonamide], for which the IC50 was 0.5 to 5 µM.
